Data reported in ChEMBL document CHEMBL3045223, “Synthesis, nematicidal and antimicrobial properties of Bis-[4-methoxy-3-[3-(4-fluorophenyl)-6-(4-methylphenyl)-2(aryl)-tetrahydro-2H-pyrazolo[3,4-d]thiazol-5-yl]phenyl]methanes” (2009).
Converted amounts (≈) assume the structure as drawn. The source made the active and inactive calls. The rule behind the calls is not given here.

Assays:
Format in all cases: functional
Bacillus subtilis [1] = assay: Antibacterial activity against Bacillus subtilis MTCC 441 assessed as growth arrest at 37 degC for 24 hr; conditions: MTCC 441, 24 h
[2] = system: Lysinibacillus sphaericus; assay: Antibacterial activity against Lysinibacillus sphaericus MTCC 11 assessed as growth arrest at 37 degC for 24 hr; conditions: MTCC 11, 24 h
Bacillus subtilis [3] = assay: Antibacterial activity against Bacillus subtilis MTCC 441 assessed as inhibition zones at 300 ug/disk at 37 degC for 24 hr; conditions: MTCC 441, 24 h, read-out: IZ
Trichophyton rubrum [4] = assay: Antifungal activity against Trichophyton rubrum IFO 9185 assessed as growth inhibition at 300 ug/disk at 37 degC for 48 hr; conditions: for zone of inhibition at 300 µg/disc: IFO 9185, 48 h, read-out: IZ
Aspergillus fumigatus [5] = assay: Antifungal activity against Aspergillus fumigatus HIC 6094 assessed as growth inhibition at 37 degC for 48 hr; conditions: HIC 6094, 48 h
Pseudomonas aeruginosa [6] = assay: Antibacterial activity against Pseudomonas aeruginosa MTCC 741 assessed as inhibition zones at 300 ug/disk at 37 degC for 24 hr; conditions: MTCC 741, 24 h, read-out: IZ
Candida albicans [7] = assay: Antifungal activity against Candida albicans ATCC 10231 assessed as growth inhibition at 300 ug/disk at 37 degC for 48 hr; conditions: for zone of inhibition at 300 µg/disc: ATCC 10231, 48 h, read-out: IZ
[8] = system: Chromobacterium violaceum; assay: Antibacterial activity against Chromobacterium violaceum MTCC 2656 assessed as growth arrest at 37 degC for 24 hr; conditions: MTCC 2656, 24 h
[9] = system: Trichophyton mentagrophytes; assay: Antifungal activity against Trichophyton mentagrophytes IFO 40996 assessed as growth inhibition at 300 ug/disc at 37 degC for 48 hr
Staphylococcus aureus [10] = assay: Antibacterial activity against Staphylococcus aureus MTCC 96 assessed as growth arrest at 37 degC for 24 hr; conditions: MTCC 96, 24 h
Klebsiella aerogenes [11] = assay: Antibacterial activity against Enterobacter aerogenes MTCC 39 assessed as growth arrest at 37 degC for 24 hr; conditions: MTCC 39, 24 h
[12] = system: Chromobacterium violaceum; assay: Antibacterial activity against Chromobacterium violaceum MTCC 2656 assessed as inhibition zones at 300 ug/disk at 37 degC for 24 hr; conditions: MTCC 2656, 24 h, read-out: IZ
[13] = system: Lysinibacillus sphaericus; assay: Antibacterial activity against Lysinibacillus sphaericus MTCC 11 assessed as inhibition zones at 300 ug/disk at 37 degC for 24 hr; conditions: MTCC 11, 24 h, read-out: IZ
Pseudomonas aeruginosa [14] = assay: Antibacterial activity against Pseudomonas aeruginosa MTCC 741 assessed as growth arrest at 37 degC for 24 hr; conditions: MTCC 741, 24 h
[15] = system: Ditylenchus myceliophagus; assay: Nematicidal activity against Ditylenchus myceliophagus assessed as immobility; conditions: read-out: LD50 (the source's name)
Klebsiella aerogenes [16] = assay: Antibacterial activity against Enterobacter aerogenes MTCC 39 assessed as inhibition zones at 300 ug/disk at 37 degC for 24 hr; conditions: MTCC 39, 24 h, read-out: IZ
Candida albicans [17] = assay: Antifungal activity against Candida albicans ATCC 10231 assessed as growth inhibition at 37 degC for 48 hr; conditions: ATCC 10231, 48 h
Caenorhabditis elegans = assay: Nematicidal activity against Caenorhabditis elegans assessed as immobility; conditions: read-out: LD50 (the source's name)
Trichophyton rubrum [18] = assay: Antifungal activity against Trichophyton rubrum IFO 9185 assessed as growth inhibition at 37 degC for 48 hr; conditions: IFO 9185, 48 h
Staphylococcus aureus [19] = assay: Antibacterial activity against Staphylococcus aureus MTCC 96 assessed as inhibition zones at 300 ug/disc at 37 degC for 24 hr; conditions: MTCC 96, 24 h, read-out: IZ
Aspergillus fumigatus [20] = assay: Antifungal activity against Aspergillus fumigatus HIC 6094 assessed as growth inhibition at 300 ug/disc at 37 degC for 48 hr
[21] = system: Trichophyton mentagrophytes; assay: Antifungal activity against Trichophyton mentagrophytes IFO 40996 assessed as growth inhibition at 37 degC for 48 hr

SMILES	MBC (Bacillus subtilis [1]) [µg/mL]	MIC (Bacillus subtilis [1]) [µg/mL]	MBC [2] [µg/mL]	MIC [2] [µg/mL]	zone of inhibition at 300 µg/disc (Bacillus subtilis [3]) [mm]	MBC (Aspergillus fumigatus [5]) [µg/mL]	MIC (Aspergillus fumigatus [5]) [µg/mL]	zone of inhibition at 300 µg/disc (Pseudomonas aeruginosa [6]) [mm]	MBC [8] [µg/mL]	MIC [8] [µg/mL]	MBC (Staphylococcus aureus [10]) [µg/mL]	MIC (Staphylococcus aureus [10]) [µg/mL]	MBC (Klebsiella aerogenes [11]) [µg/mL]	MIC (Klebsiella aerogenes [11]) [µg/mL]	zone of inhibition at 300 µg/disc [12] [mm]	zone of inhibition at 300 µg/disc [13] [mm]	MBC (Pseudomonas aeruginosa [14]) [µg/mL]	MIC (Pseudomonas aeruginosa [14]) [µg/mL]	LC50 [15] [µg/mL]	zone of inhibition at 300 µg/disc (Klebsiella aerogenes [16]) [mm]	also measured
COc1ccc(Cc2ccc(OC)c(C3SC4C(=NN(c5ccc(Cl)cc5)C4c4ccc(F)cc4)N3c3ccc([N+](=O)[O-])cc3)c2)cc1C1SC2C(=NN(c3ccc(Cl)cc3)C2c2ccc(F)cc2)N1c1ccc([N+](=O)[O-])cc1 (stereo not given)	50 (≈ 44.1 µM)	6.25 (≈ 5.51 µM)	50 (≈ 44.1 µM)	12.5 (≈ 11 µM)	21	50 (≈ 44.1 µM)	25 (≈ 22 µM)	16	50 (≈ 44.1 µM)	12.5 (≈ 11 µM)	25 (≈ 22 µM)	6.25 (≈ 5.51 µM)	25 (≈ 22 µM)	12.5 (≈ 11 µM)	16	16	50 (≈ 44.1 µM)	50 (≈ 44.1 µM)	230 (≈ 203 µM)	20	inhibition zone (IZ) (Trichophyton rubrum [4]): inactive; zone of inhibition at 300 µg/disc (Candida albicans [7]): 15 mm; inhibition zone (IZ) [9]: inactive; MBC (Candida albicans [17]): 25 µg/mL (≈ 22 µM); MIC (Candida albicans [17]): 25 µg/mL (≈ 22 µM); LC50 (Caenorhabditis elegans): 350 µg/mL (≈ 309 µM); MBC (Trichophyton rubrum [18]): 50 µg/mL (≈ 44.1 µM); MIC (Trichophyton rubrum [18]): 25 µg/mL (≈ 22 µM); zone of inhibition at 300 µg/disc (Staphylococcus aureus [19]): 16 mm; inhibition zone (IZ) (Aspergillus fumigatus [20]): inactive; MBC ([21]; IFO 40996, 48 h): 12.5 µg/mL (≈ 11 µM); MIC ([21]; IFO 40996, 48 h): 6.25 µg/mL (≈ 5.51 µM)
COc1ccc(Cc2ccc(OC)c(C3SC4C(=NN(c5ccc(Cl)cc5)C4c4ccc(F)cc4)N3c3ccc(Cl)cc3)c2)cc1C1SC2C(=NN(c3ccc(Cl)cc3)C2c2ccc(F)cc2)N1c1ccc(Cl)cc1 (stereo not given)	25 (≈ 22.5 µM)	12.5 (≈ 11.2 µM)	25 (≈ 22.5 µM)	6.25 (≈ 5.62 µM)	11	25 (≈ 22.5 µM)	25 (≈ 22.5 µM)	18	50 (≈ 44.9 µM)	25 (≈ 22.5 µM)	50 (≈ 44.9 µM)	12.5 (≈ 11.2 µM)	12.5 (≈ 11.2 µM)	12.5 (≈ 11.2 µM)	18	19	50 (≈ 44.9 µM)	50 (≈ 44.9 µM)	290 (≈ 261 µM)	19	zone of inhibition at 300 µg/disc (Trichophyton rubrum [4]): 15 mm; inhibition zone (IZ) (Candida albicans [7]): inactive; inhibition zone (IZ) [9]: inactive; MBC (Candida albicans [17]): 12.5 µg/mL (≈ 11.2 µM); MIC (Candida albicans [17]): 12.5 µg/mL (≈ 11.2 µM); LC50 (Caenorhabditis elegans): 380 µg/mL (≈ 341 µM); MBC (Trichophyton rubrum [18]): 12.5 µg/mL (≈ 11.2 µM); MIC (Trichophyton rubrum [18]): 12.5 µg/mL (≈ 11.2 µM); zone of inhibition at 300 µg/disc (Staphylococcus aureus [19]): 22 mm; inhibition zone (IZ) (Aspergillus fumigatus [20]): inactive; MBC ([21]; IFO 40996, 48 h): 50 µg/mL (≈ 44.9 µM); MIC ([21]; IFO 40996, 48 h): 25 µg/mL (≈ 22.5 µM)
COc1ccc(Cc2ccc(OC)c(C3SC4C(=NN(c5ccccc5)C4c4ccc(F)cc4)N3c3ccc(Cl)cc3)c2)cc1C1SC2C(=NN(c3ccccc3)C2c2ccc(F)cc2)N1c1ccc(Cl)cc1 (stereo not given)	25 (≈ 23.9 µM)	6.25 (≈ 5.99 µM)	50 (≈ 47.9 µM)	12.5 (≈ 12 µM)	18	25 (≈ 23.9 µM)	12.5 (≈ 12 µM)	19	25 (≈ 23.9 µM)	12.5 (≈ 12 µM)	50 (≈ 47.9 µM)	25 (≈ 23.9 µM)	25 (≈ 23.9 µM)	12.5 (≈ 12 µM)	20	21	12.5 (≈ 12 µM)	6.25 (≈ 5.99 µM)	810 (≈ 776 µM)	22	zone of inhibition at 300 µg/disc (Trichophyton rubrum [4]): 17 mm; inhibition zone (IZ) (Candida albicans [7]): inactive; inhibition zone (IZ) [9]: inactive; MBC (Candida albicans [17]): 6.25 µg/mL (≈ 5.99 µM); MIC (Candida albicans [17]): 6.25 µg/mL (≈ 5.99 µM); LC50 (Caenorhabditis elegans): 650 µg/mL (≈ 623 µM); MBC (Trichophyton rubrum [18]): 12.5 µg/mL (≈ 12 µM); MIC (Trichophyton rubrum [18]): 12.5 µg/mL (≈ 12 µM); zone of inhibition at 300 µg/disc (Staphylococcus aureus [19]): 20 mm; inhibition zone (IZ) (Aspergillus fumigatus [20]): inactive; MBC ([21]; IFO 40996, 48 h): 12.5 µg/mL (≈ 12 µM); MIC ([21]; IFO 40996, 48 h): 6.25 µg/mL (≈ 5.99 µM)
COc1ccc(Cc2ccc(OC)c(C3SC4C(=NN(C)C4c4ccc(F)cc4)N3c3ccc(Cl)cc3)c2)cc1C1SC2C(=NN(C)C2c2ccc(F)cc2)N1c1ccc(Cl)cc1 (stereo not given)	50 (≈ 54.4 µM)	12.5 (≈ 13.6 µM)	25 (≈ 27.2 µM)	12.5 (≈ 13.6 µM)	21	50 (≈ 54.4 µM)	6.25 (≈ 6.79 µM)	21	50 (≈ 54.4 µM)	12.5 (≈ 13.6 µM)	12.5 (≈ 13.6 µM)	12.5 (≈ 13.6 µM)	25 (≈ 27.2 µM)	12.5 (≈ 13.6 µM)	19	20	25 (≈ 27.2 µM)	12.5 (≈ 13.6 µM)	190 (≈ 207 µM)	21	zone of inhibition at 300 µg/disc (Trichophyton rubrum [4]): 13 mm; zone of inhibition at 300 µg/disc (Candida albicans [7]): 18 mm; zone of inhibition at 300 µg/disc ([9]; IFO 40996, 48 h, read-out: IZ): 16 mm; MBC (Candida albicans [17]): 25 µg/mL (≈ 27.2 µM); MIC (Candida albicans [17]): 12.5 µg/mL (≈ 13.6 µM); LC50 (Caenorhabditis elegans): 210 µg/mL (≈ 228 µM); MBC (Trichophyton rubrum [18]): 25 µg/mL (≈ 27.2 µM); MIC (Trichophyton rubrum [18]): 6.25 µg/mL (≈ 6.79 µM); zone of inhibition at 300 µg/disc (Staphylococcus aureus [19]): 20 mm; zone of inhibition at 300 µg/disc (Aspergillus fumigatus [20]; HIC 6094, 48 h, read-out: IZ): 15 mm; MBC [21]: inactive; MIC [21]: inactive
COc1ccc(N2N=C3C(SC(c4cc(Cc5ccc(OC)c(C6SC7C(=NN(c8ccc(OC)cc8)C7c7ccc(F)cc7)N6c6ccc([N+](=O)[O-])cc6)c5)ccc4OC)N3c3ccc([N+](=O)[O-])cc3)C2c2ccc(F)cc2)cc1 (stereo not given)	25 (≈ 22.2 µM)	12.5 (≈ 11.1 µM)	50 (≈ 44.4 µM)	12.5 (≈ 11.1 µM)	14	25 (≈ 22.2 µM)	12.5 (≈ 11.1 µM)	9	25 (≈ 22.2 µM)	12.5 (≈ 11.1 µM)	25 (≈ 22.2 µM)	12.5 (≈ 11.1 µM)	12.5 (≈ 11.1 µM)	6.25 (≈ 5.55 µM)	16	20	25 (≈ 22.2 µM)	12.5 (≈ 11.1 µM)	920 (≈ 818 µM)	21	inhibition zone (IZ) (Trichophyton rubrum [4]): inactive; zone of inhibition at 300 µg/disc (Candida albicans [7]): 13 mm; inhibition zone (IZ) [9]: inactive; MBC (Candida albicans [17]): 12.5 µg/mL (≈ 11.1 µM); MIC (Candida albicans [17]): 6.25 µg/mL (≈ 5.55 µM); LC50 (Caenorhabditis elegans): 810 µg/mL (≈ 720 µM); MBC (Trichophyton rubrum [18]): 25 µg/mL (≈ 22.2 µM); MIC (Trichophyton rubrum [18]): 12.5 µg/mL (≈ 11.1 µM); zone of inhibition at 300 µg/disc (Staphylococcus aureus [19]): 21 mm; inhibition zone (IZ) (Aspergillus fumigatus [20]): inactive; MBC [21]: inactive; MIC [21]: inactive
